Experimental data reported in article PMC8957246, “Synthesis and diverse biological activity profile of triethylammonium isatin-3-hydrazones” (ADMET & DMPK, 2022).
Like-named read-outs stand apart in the source and are kept apart here.

What was measured:
Type in all cases: cell-based
[1] = test system: Micrococcus luteus B-109; assay: Bactericidal activity, agar diffusion, M. luteus; conditions: Micrococcus luteus, B109, 2 mM/L
Outline: (§1)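 Agar diffusion: bacterial lawns on BP agar (GYCa for X. campestris), pH 7.2-7.4, with compound solution (150 μl; stock 2 mmol/l) placed in 6-mm wells. Growth inhibition zone width measured after 36-40 h incubation, bacteria grown at 28°C.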

[2] = test system: Xanthomonas campestris B-610; assay: Bactericidal activity, agar diffusion, X. campestris; conditions: Xanthomonas campestris, B610, 2 mM/L
Outline: as §1

[3] = test system: Fusarium oxysporum IBPPM 543; assay: Fungicidal activity, radial growth inhibition, F. oxysporum; conditions: for EC50: Fusarium oxysporum, IBPPM543, 168 h, day 7, EC50 = 50C/I, read-out: EC50, μg/mL at day 7
Outline: (§2)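 Compound solutions mixed into molten GPY agar (~60 °C) at various concentrations; plates centre-inoculated with a 5-mm mycelial block from 10-day cultures and incubated at 27 °C until control plates filled (~12 days). Inhibition is the % decrease in colony radial growth versus untreated control; EC50 = 50C/I.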

[4] = test system: Phytophthora cactorum VKM F-985; assay: Fungicidal activity, radial growth inhibition, P. cactorum; conditions: for EC50: Phytophthora cactorum, 168 h, day 7, EC50 = 50C/I, read-out: EC50, μg/mL at day 7
Outline: as §2

[5] = 150 μl per well, 36-40 h, read-out: width of the inhibition zone
[6] = read-out: Inhibition zone width (mm), not less
[7] = C 6.47 μg/mL, age of the fungus 3 days
[8] = C 6.47 μg/mL, age of the fungus 5 days
[9] = C 6.47 μg/mL, age of the fungus 7 days
[10] = C 6.47 μg/mL, age of the fungus 9 days
[11] = C 12.94 μg/mL, age of the fungus 3 days
[12] = C 12.94 μg/mL, age of the fungus 5 days
[13] = C 12.94 μg/mL, age of the fungus 7 days
[14] = C 12.94 μg/mL, age of the fungus 9 days
[15] = C 7.15 μg/mL, age of the fungus 3 days
[16] = C 7.15 μg/mL, age of the fungus 5 days
[17] = C 7.15 μg/mL, age of the fungus 7 days
[18] = C 7.15 μg/mL, age of the fungus 9 days
[19] = C 14.30 μg/mL, age of the fungus 3 days
[20] = C 14.30 μg/mL, age of the fungus 5 days
[21] = C 14.30 μg/mL, age of the fungus 7 days
[22] = C 14.30 μg/mL, age of the fungus 9 days

SMILES: CC[N+](CC)(CC)CC(=O)N/N=C1\C(=O)N(Cc2cc(C(C)(C)C)c(O)c(C(C)(C)C)c2)c2ccc([N+](=O)[O-])cc21 [Compound 3f, 2-(2-(1-(3,5-Di-tert-butyl-4-hydroxybenzyl)-5-nitro-2-oxoindolin-3-ylidene)hydrazinyl)-N,N,N-triethyl-2-oxoethanammonium bromide]
- zone of inhibition at 2000 µM [1, 5]: 10 mm
- zone of inhibition at 2000 µM [1, 6]: ≥ 10 mm
- zone of inhibition at 2000 µM [2, 5]: 7.5 mm
- Inhibition value, I (%) [3, 7]: 13%
- Inhibition value, I (%) [3, 8]: 11%
- Inhibition value, I (%) [3, 9]: 10%
- Inhibition value, I (%) [3, 10]: 9%
- Inhibition value, I (%) [3, 11]: 26%
- Inhibition value, I (%) [3, 12]: 23%
- Inhibition value, I (%) [3, 13]: 21%
- Inhibition value, I (%) [3, 14]: 10%
- Inhibition value, I (%) ([3]; C 25.88 μg/mL, age of the fungus 3 days): 28%
- Inhibition value, I (%) ([3]; C 25.88 μg/mL, age of the fungus 5 days): 27%
- Inhibition value, I (%) ([3]; C 25.88 μg/mL, age of the fungus 7 days): 32%
- Inhibition value, I (%) ([3]; C 25.88 μg/mL, age of the fungus 9 days): 12%
- Inhibition value, I (%) ([3]; C 38.82 μg/mL, age of the fungus 3 days): 29%
- Inhibition value, I (%) ([3]; C 38.82 μg/mL, age of the fungus 5 days): 28%
- Inhibition value, I (%) ([3]; C 38.82 μg/mL, age of the fungus 7 days): 34%
- Inhibition value, I (%) ([3]; C 38.82 μg/mL, age of the fungus 9 days): 18%
- EC50 [3]: 30.8 µg/mL
- Inhibition value, I (%) ([4]; C 1.29 μg/mL, age of the fungus 3 days): 17%
- Inhibition value, I (%) ([4]; C 1.29 μg/mL, age of the fungus 5 days): 11%
- Inhibition value, I (%) ([4]; C 1.29 μg/mL, age of the fungus 7 days): 2%
- Inhibition value, I (%) ([4]; C 1.29 μg/mL, age of the fungus 9 days): 0%
- Inhibition value, I (%) ([4]; C 1.29 μg/mL, age of the fungus 12 days): 0%
- Inhibition value, I (%) ([4]; C 3.24 μg/mL, age of the fungus 3 days): 33%
- Inhibition value, I (%) ([4]; C 3.24 μg/mL, age of the fungus 5 days): 19%
- Inhibition value, I (%) ([4]; C 3.24 μg/mL, age of the fungus 7 days): 18%
- Inhibition value, I (%) ([4]; C 3.24 μg/mL, age of the fungus 9 days): 1%
- Inhibition value, I (%) ([4]; C 3.24 μg/mL, age of the fungus 12 days): 0%
- Inhibition value, I (%) [4, 7]: 35%
- Inhibition value, I (%) [4, 8]: 23%
- Inhibition value, I (%) [4, 9]: 20%
- Inhibition value, I (%) [4, 10]: 8%
- Inhibition value, I (%) ([4]; C 6.47 μg/mL, age of the fungus 12 days): 1%
- Inhibition value, I (%) ([4]; C 9.71 μg/mL, age of the fungus 3 days): 41%
- Inhibition value, I (%) ([4]; C 9.71 μg/mL, age of the fungus 5 days): 36%
- Inhibition value, I (%) ([4]; C 9.71 μg/mL, age of the fungus 7 days): 32%
- Inhibition value, I (%) ([4]; C 9.71 μg/mL, age of the fungus 9 days): 20%
- Inhibition value, I (%) ([4]; C 9.71 μg/mL, age of the fungus 12 days): 16%
- Inhibition value, I (%) [4, 11]: 59%
- Inhibition value, I (%) [4, 12]: 55%
- Inhibition value, I (%) [4, 13]: 53%
- Inhibition value, I (%) [4, 14]: 48%
- Inhibition value, I (%) ([4]; C 12.94 μg/mL, age of the fungus 12 days): 30%
- EC50 [4]: 8.99 µg/mL

SMILES: CC[N+](CC)(CC)CC(=O)N/N=C1\C(=O)N(Cc2cc(C(C)(C)C)c(O)c(C(C)(C)C)c2)c2c(Br)cc(Cl)cc21 [Compound 3g, 2-(2-(1-(3,5-Di-tert-butyl-4-hydroxybenzyl)-5-chloro-7-bromo-2-oxoindolin-3-ylidene)hydrazinyl)-N,N,N-triethyl-2-oxoethanammonium bromide]
- zone of inhibition at 2000 µM [1, 5]: 7 mm
- zone of inhibition at 2000 µM [2, 5]: 8 mm
- zone of inhibition at 2000 µM [2, 6]: ≥ 8 mm
- Inhibition value, I (%) [3, 15]: 0%
- Inhibition value, I (%) [3, 16]: 4%
- Inhibition value, I (%) [3, 17]: 5%
- Inhibition value, I (%) [3, 18]: 4%
- Inhibition value, I (%) [3, 19]: 9%
- Inhibition value, I (%) [3, 20]: 4%
- Inhibition value, I (%) [3, 21]: 11%
- Inhibition value, I (%) [3, 22]: 5%
- Inhibition value, I (%) ([3]; C 28.60 μg/mL, age of the fungus 3 days): 11%
- Inhibition value, I (%) ([3]; C 28.60 μg/mL, age of the fungus 5 days): 7%
- Inhibition value, I (%) ([3]; C 28.60 μg/mL, age of the fungus 7 days): 26%
- Inhibition value, I (%) ([3]; C 28.60 μg/mL, age of the fungus 9 days): 10%
- Inhibition value, I (%) ([3]; C 42.90 μg/mL, age of the fungus 3 days): 31%
- Inhibition value, I (%) ([3]; C 42.90 μg/mL, age of the fungus 5 days): 27%
- Inhibition value, I (%) ([3]; C 42.90 μg/mL, age of the fungus 7 days): 32%
- Inhibition value, I (%) ([3]; C 42.90 μg/mL, age of the fungus 9 days): 13%
- EC50 [3]: 55 µg/mL
- Inhibition value, I (%) ([4]; C 1.43 μg/mL, age of the fungus 3 days): 30%
- Inhibition value, I (%) ([4]; C 1.43 μg/mL, age of the fungus 5 days): 29%
- Inhibition value, I (%) ([4]; C 1.43 μg/mL, age of the fungus 7 days): 15%
- Inhibition value, I (%) ([4]; C 1.43 μg/mL, age of the fungus 9 days): 1%
- Inhibition value, I (%) ([4]; C 1.43 μg/mL, age of the fungus 12 days): 0%
- Inhibition value, I (%) ([4]; C 3.58 μg/mL, age of the fungus 3 days): 38%
- Inhibition value, I (%) ([4]; C 3.58 μg/mL, age of the fungus 5 days): 29%
- Inhibition value, I (%) ([4]; C 3.58 μg/mL, age of the fungus 7 days): 22%
- Inhibition value, I (%) ([4]; C 3.58 μg/mL, age of the fungus 9 days): 5%
- Inhibition value, I (%) ([4]; C 3.58 μg/mL, age of the fungus 12 days): 0%
- Inhibition value, I (%) [4, 15]: 40%
- Inhibition value, I (%) [4, 16]: 33%
- Inhibition value, I (%) [4, 17]: 26%
- Inhibition value, I (%) [4, 18]: 14%
- Inhibition value, I (%) ([4]; C 7.15 μg/mL, age of the fungus 12 days): 11%
- Inhibition value, I (%) ([4]; C 10.73 μg/mL, age of the fungus 3 days): 48%
- Inhibition value, I (%) ([4]; C 10.73 μg/mL, age of the fungus 5 days): 43%
- Inhibition value, I (%) ([4]; C 10.73 μg/mL, age of the fungus 7 days): 41%
- Inhibition value, I (%) ([4]; C 10.73 μg/mL, age of the fungus 9 days): 31%
- Inhibition value, I (%) ([4]; C 10.73 μg/mL, age of the fungus 12 days): 26%
- Inhibition value, I (%) [4, 19]: 51%
- Inhibition value, I (%) [4, 20]: 48%
- Inhibition value, I (%) [4, 21]: 46%
- Inhibition value, I (%) [4, 22]: 41%
- Inhibition value, I (%) ([4]; C 14.30 μg/mL, age of the fungus 12 days): 28%
- EC50 [4]: 4.77 µg/mL
